Experimental data published in patent US7291612B2, “Immunomodulatory compounds” (Active Biotech A.B., priority 2002, dated 2007).

target: T1, CD80-CD28 interaction (Homo sapiens, UniProt P33681); assay: cell free Homogenous Time Resolved Fluorescence (HTRF) assay, inhibition of the CD80-CD28 interaction; type: binding; conditions: 4 hours at room temperature, read-out: Activity (EC50 in summary form)
T1 construct: mouse Fab fragment (fusion partner)
T1 sequence (P33681 35-242 limits assumed): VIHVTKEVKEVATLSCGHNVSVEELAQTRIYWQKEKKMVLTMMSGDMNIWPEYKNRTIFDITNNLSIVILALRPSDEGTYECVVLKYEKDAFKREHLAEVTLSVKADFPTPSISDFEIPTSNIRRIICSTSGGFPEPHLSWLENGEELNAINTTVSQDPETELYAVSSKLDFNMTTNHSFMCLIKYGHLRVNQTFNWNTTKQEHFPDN
Method: The examples described above were tested in a cell free Homogenous Time Resolved Fluorescence (HTRF) assay to determine their activity as inhibitors of the CD80-CD28 interaction.
In the assay, europium and allophycocyanin (APC) are associated with CD28 and CD80 indirectly (through antibody linkers) to form a complex, which brings the europium and APC into close proximity to generate a signal. The complex comprises the following six proteins: fluorescent label 1, linker antibody 1, CD28 fusion protein, CD80 fusion protein, linker antibody 2, and fluorescent label 2. The table below describes these reagents in greater detail.
On formation of the complex, europium and APC are brought into proximity and a signal is generated.
Non-specific interaction was measured by substituting a mouse Fab fragment (C215) for the CD80 mouse Fab fragment fusion protein (1.9 μg/ml). The assay was carried out in black 384 well plates in a final volume of 30 μl. Assay buffer: 50 mM Tris-HCl, 150 mM NaCl pH7.8, containing 0.1% BSA (w/v) added just prior to use.
Compounds were added to the above reagents in a concentration series ranging between 100 μM-1.7 nM. The reaction was incubated for 4 hours at room temperature. Dual measurements were made using a Wallac Victor 1420 Multilabel Counter. First measurement: excitation 340 nm, emission 665 nm, delay 50 μs, window time 200 μs. second measurement: excitation 340 nm, emission 615 nm, delay 50 μs, window time 200 μs. Counts were automatically corrected for fluorescence crossover, quenching and background.

| EC50 | SMILES |
| --- | --- |
| < 1 µM | CCC(C)C(=O)Nc1ccc(-n2nc3c4cccc(F)c4[nH]cc-3c2=O)cc1 (centres unmarked) [Example 1, N-[4-(6-Fluoro-3-oxo-3,5-dihydropyrazolo[4,3-c]quinolin-2-yl)-phenyl]-2-methyl-butyramide] |
| < 1 µM | CCCC(C)C(=O)Nc1ccc(-n2nc3c4cccc(F)c4[nH]cc-3c2=O)cc1 (centres unmarked) [Example 2, 2-Methyl-pentanoic acid [4-(6-fluoro-3-oxo-3,5-dihydro-pyrazolo[4,3-c]quinolin-2-yl)-phenyl]-amide] |
| > 10 µM | Cn1cccc1C(=O)Nc1ccc(-n2nc3c4cccc(F)c4[nH]cc-3c2=O)cc1 [Example 3, 1-Methyl-1H-pyrrole-2-carboxylic acid [4-(6-fluoro-3-oxo-3,5-dihydro-pyrazolo[4,3-c]quinolin-2-yl)-phenyl]-amide] |
| 1 to 10 µM | CC(C)CC(=O)Nc1ccc(-n2nc3c4cccc(F)c4[nH]cc-3c2=O)cc1 [Example 4, N-[4-(6-Fluoro-3-oxo-3,5-dihydro-pyrazolo[4,3-c]quinolin-2-yl)-phenyl]-3-methyl-butyramide] |
| > 10 µM | CCCC(CCC)C(=O)Nc1ccc(-n2nc3c4cccc(F)c4[nH]cc-3c2=O)cc1 [Example 5, 2-Propyl-pentanoic acid [4-(6-fluoro-3-oxo-3,5-dihydro-pyrazolo[4,3-c]quinolin-2-yl)-phenyl]-amide] |
| < 1 µM | COC(=O)CCCCC(=O)Nc1ccc(-n2nc3c4cccc(F)c4[nH]cc-3c2=O)cc1 [Example 6, 5-[4-(6-Fluoro-3-oxo-3,5-dihydro-pyrazolo[4,3-c]quinolin-2-yl)phenylcarbamoyl]-pentanoic acid methyl ester] |
| 1 to 10 µM | CC(C)(C)C(=O)Nc1ccc(-n2nc3c4cccc(F)c4[nH]cc-3c2=O)cc1 [Example 7, N-[4-(6-Fluoro-3-oxo-3,5-dihydro-pyrazolo[4,3-c]quinolin-2-yl)-phenyl]-2,2-dimethyl-propionamide] |
| 1 to 10 µM | O=C(COCc1ccccc1)Nc1ccc(-n2nc3c4cccc(F)c4[nH]cc-3c2=O)cc1 [Example 8] |
| 1 to 10 µM | O=C(CCl)Nc1ccc(-n2nc3c4cccc(F)c4[nH]cc-3c2=O)cc1 [Example 9] |
| > 10 µM | O=C(Nc1ccc(-n2nc3c4cccc(F)c4[nH]cc-3c2=O)cc1)c1ccco1 [Example 10] |
| > 10 µM | O=C(Nc1ccc(-n2nc3c4cccc(F)c4[nH]cc-3c2=O)cc1)c1ccc(N2CCOCC2)nc1 [Example 11] |
| 1 to 10 µM | COC(=O)C(=O)Nc1ccc(-n2nc3c4cccc(F)c4[nH]cc-3c2=O)cc1 [Example 12] |
| > 10 µM | CCCc1c(C(=O)Nc2ccc(-n3nc4c5cccc(F)c5[nH]cc-4c3=O)cc2)cnn1-c1ccccc1 [Example 14] |
| 1 to 10 µM | O=C(Nc1ccc(-n2nc3c4cccc(F)c4[nH]cc-3c2=O)cc1)c1ncoc1-c1ccccc1 [Example 15] |
| 1 to 10 µM | CC(=O)Nc1ccc(-n2nc3c4cccc(F)c4[nH]cc-3c2=O)cc1 [Example 16] |
| > 10 µM | CCCCC(CC)C(=O)Nc1ccc(-n2nc3c4cccc(F)c4[nH]cc-3c2=O)cc1 (centres unmarked) [Example 17] |
| < 1 µM | CCC(CC)C(=O)Nc1ccc(-n2nc3c4cccc(F)c4[nH]cc-3c2=O)cc1 [Example 18] |
| 1 to 10 µM | O=C(CC1CCCC1)Nc1ccc(-n2nc3c4cccc(F)c4[nH]cc-3c2=O)cc1 [Example 19] |
| 1 to 10 µM | CC(=O)N1CCC(C(=O)Nc2ccc(-n3nc4c5cccc(F)c5[nH]cc-4c3=O)cc2)CC1 [Example 20] |
| 1 to 10 µM | O=C(Cc1c(Cl)cccc1Cl)Nc1ccc(-n2nc3c4cccc(F)c4[nH]cc-3c2=O)cc1 [Example 21] |
| < 1 µM | CC(=O)OC(C)(C)C(=O)Nc1ccc(-n2nc3c4cccc(F)c4[nH]cc-3c2=O)cc1 [Example 22] |
| 1 to 10 µM | COC(=O)CCCCCCCCC(=O)Nc1ccc(-n2nc3c4cccc(F)c4[nH]cc-3c2=O)cc1 [Example 23] |
| < 1 µM | CC(C)C(=O)Nc1ccc(-n2nc3c4cccc(F)c4[nH]cc-3c2=O)cc1 [Example 24] |
| 1 to 10 µM | COCCOCC(=O)Nc1ccc(-n2nc3c4cccc(F)c4[nH]cc-3c2=O)cc1 [Example 25] |

same assay, conditions: read-out: EC50

| EC50 | SMILES |
| --- | --- |
| 8 µM | O=C(Nc1ccc(-n2nc3c4cccc(F)c4[nH]cc-3c2=O)cc1)c1ncoc1-c1ccccc1 [Example 15] |
| 1.9 µM | O=C(Cc1c(Cl)cccc1Cl)Nc1ccc(-n2nc3c4cccc(F)c4[nH]cc-3c2=O)cc1 [Example 21] |
